Reference: publication PMC7024221, “The Application of Reversible Intramolecular Sulfonamide Ligation to Modulate Reactivity in Organometallic Ruthenium(II) Diamine Complexes” (Molecules, 2020)
“Also recorded” adds a separate entry of the source. Read-outs that look alike come from different tables or passages of the source. Marks after values point to notes of the source that are not given here.

Key:
[1] = cited from earlier work
[2] = pH titration by 1H/19F NMR of open and chelate forms (apparent pKa); type: physicochemical; conditions: 2.46 mM complex, D2O, 0.1 M NaCl; for Apparent pKa: Henderson-Hasselbalch fit of % open form versus pD
Method: The ability of the tethered sulfonamide functionality to reversibly ligate to the ruthenium atom in a pH-dependent manner, forming an intramolecular chelate, was examined by recording ^1H NMR spectra of 1–5 (and ^19F NMR spectra for 2–5) (2.46 mM complex, D2O, […], 0.1 M NaCl) as a function of pH. Within these spectra two unique sets of signals were observed, the relative proportion of these being pH-dependent, that were assigned to the open and chelate forms of the complexes (Figures S12–S15). Plotting the percentage of open form of the complex, calculated from the ratio of selected ligand signals corresponding to the open and chelate forms of the complexes, versus pD yielded sigmoidal curves in each case and apparent pKa values for 1–5 (Table 1) were determined by fitting of the Henderson-Hasselbalch equation to the data (Figure 7 and Figure 8).
pH titrations of 1–6 and [Ru(η^6-C6H5CH2CH2NHTr)(C2O4)(H2O)] were conducted by adjustment of the pD of solutions of the complexes (2.46 mM, 295 K, 0.1 M NaCl) in D2O through addition of 1–5 µL aliquots of NaOD (3.6 wt.%) and DCl (1.8 wt.%) solutions in D2O. Following pD adjustment the solutions were left to equilibrate (for 1–6 this was up to 36 h) then the ^1H and ^19F spectra of each were recorded. The ratio of selected ligand signals (for example –CH3 for 1, arene resonances for 2, –CF3 for 3–5) corresponding to the open- and chelate-forms of the complex were determined for each pD value and enabled a plot of % open-form versus pD. pKa values were calculated through fitting of the Henderson-Hasselbalch equation to the data.

[3] = Solution stability (NaCl, arene loss on standing of NMR solution); type: physicochemical; conditions: standing for extended periods of time (>24 h)
Method: A total of six half-sandwich ruthenium(II) arene complexes were synthesized for evaluation in this study (Figure 2). [Ru(η^6-C6H5CH2CH2NHR)(en)(Cl)]PF6 (R = Ms (1), tresyl (Tr) (2), Tf (3) or acetyl (6)) and [Ru(η^6-C6H5(CH2)3CH2NHTf)(en)(Cl)]PF6 (5) were prepared via reaction of the respective [RuCl2(η^6-C6H5(CH2)nCH2NHR)]2 (R = acetyl, Ms, Tf or Tr) complex with ethylenediamine followed by the addition of NH4PF6 then crystallization of the product by concentration of the methanol solution or via vapor diffusion with diethyl ether. [Ru(η^6:κ^1-C6H5(CH2)2CH2NTf)(en)]PF6 (4) was prepared via the reaction of [RuCl2(η^6-C6H5(CH2)2CH2NHTf)]2 with ethylenediamine then treatment with silver carbonate and triethylamine, followed by addition of NH4PF6 and precipitation of the product by concentration and cooling. All complexes are soluble in water (≥5 mM) and stable in the presence of NaCl (100 mM). All complexes were characterized by ^1H, ^13C and ^19F NMR spectroscopy, high resolution mass spectrometry and elemental analysis.
During these studies it was observed that for 1–3 arene-ruthenium cleavage began to occur on standing of the NMR solution for even relatively short periods of time (>1 h) (Figures S12–S14).

[4] = set-up: method as in doi:10.1021/acs.organomet.7b00868; conditions: R = Ms, Tf; reported previously; cited from earlier work
5′-GMP = assay: NMR binding study with the model ligand 5′-GMP; conditions: 1 eq. 5′-GMP, 2.46 mM complex, phosphate buffer 0.2 M, 310 K, 0.1 M NaCl
Method: (§1) The coordination of a metallodrug, via the metal ion, to biomacromolecular targets is a major mechanism by which biological activity is exerted in many of these complexes. To evaluate the ability of intramolecular sulfonamide ligation to regulate the availability of a coordination site at the ruthenium ion in this family of complexes, and therefore control ligation of endogenous ligands to the complex, binding studies were performed between 4 (and the control compound 6) and the model ligands L-histidine and 5′-GMP. 4 and 6 were incubated with 1 eq. of 5′-GMP or L-histidine (2.46 mM complex, phosphate buffer (0.2 M), 310 K, 0.1 M NaCl) for 144 h at pD values of 7.5 and 6.5 in each case. Incubations were monitored by ^1H and ^19F NMR. […] The degree of L-histidine coordination was not able to be quantified using ^1H NMR due to hydrogen-deuterium exchange which occurs at the histidine C2 proton and low intensity and overlapping peaks, but was more pronounced at pD 7.5 than pD 6.5. […]
(§2) The reactivity of 4 and 6 towards 5′-GMP/L-histidine was assessed by mixing stock solutions of the complex and ligand in phosphate buffer (both in D2O, 0.1 M NaCl) to yield 1:1 solutions with each component present at a concentration of 2.46 mM (200 mM buffer concentration, 0.1 M NaCl). […] Samples were incubated at 310 K and monitored using ^1H and ^19F NMR. […]

[5] = NMR binding study with the model ligand L-histidine; conditions: 1 eq. L-histidine, 2.46 mM complex, phosphate buffer 0.2 M, 310 K, 0.1 M NaCl
Method: as §1, §2

bovine serum albumin = bovine serum albumin (Bos taurus, UniProt P02769); assay: Incubation with bovine serum albumin monitored by 1H and 19F NMR; conditions: 72 h, 2.46 mM complex, 0.5 mM BSA, 310 K, pD 7.4
[6] = Conversion of chelate form to open form in citrate/phosphate buffer, 19F NMR; type: physicochemical; conditions: 310 K
Method: To gain further insight into the reactivity of 4 the conversion of the chelate form to open form of the complex was probed in three different citrate/phosphate buffer solutions at 310 K (Figure 9). Aqueous solutions of 4 at pD 7.61 (where the chelate form of the complex exists exclusively) were diluted into citrate/phosphate buffer to yield solutions at pD 4.12, 4.91 and 5.96 (2.46 mM complex, 0.1 M NaCl). The conversion of the chelate form to the open form was monitored by ^19F NMR spectroscopy over 16 h. Under the most acidic conditions (pD 4.12) equilibrium was reached within the 16 h experiment duration, with 93% of 4 converting to the open form.
The conversion of the chelate-form of 4 to the activated open-form was investigated by dilution of a stock solution of 4 (D2O, 0.1 M NaCl) into citrate/phosphate buffer solutions (D2O, 0.1 M NaCl) at pD 4.12, 4.91 and 5.96 to yield solutions at a final complex concentration of 2.46 mM. The samples were maintained at 310 K within the NMR spectrometer and ^19F NMR spectra were recorded every 15 min for 16 h. The ratio of the –CF3 signals corresponding to the open- and chelate-forms of the complex were determined to allow a plot of % open-form versus time. The fitting of the equation y = C + A(1−e^−kx) (C-offset from zero; A-amplitude of the curve) to each set of experimental data yielded the half-life for the fraction of the chelate-form of 4 which is converted to the open-form.

HT-29 cell line = assay: MTT cytotoxicity assay; type: cell-based, human; conditions: HT-29, concentrations up to 100 µM, 72 h
Method: Having established the ability of 4 to coordinate to biologically relevant ligands in a pH-dependent manner we evaluated the cytotoxicity of 4 (and 6 as a control unable to form an intramolecular chelate) against the HT-29 cell line using the MTT assay. In light of the potential non-covalent interaction of 4 with protein as described earlier these assays were performed for both 4 and 6 using media containing 10% and 1% fetal calf serum to assess the effect of serum concentration on cytotoxicity. […] It is clear that while 6 is readily able to coordinate to 5′-GMP and L-histidine, and presumably forms biomacromolecular adducts in cell culture experiments, the nature and/or level of adducts formed is not detrimental to HT-29 cell viability. The ability of 4 to form biomacromolecular adducts in cell culture conditions will be less than that of 6 due to substantial intramolecular sulfonamide ligation under these pH conditions. […]
HT-29 (human colon adenocarcinoma) cells were counted and the concentration adjusted to 3 × 10^4 cells/.mL 100 µL of the cell suspension was dispensed into the wells of a 96 well plate. […] The results were read on a plate reader (Biotek ELX800 Universal Microplate Reader) at 570 nm. The viability of the cells is expressed as % of cell survival of each dilution against the “cells only” control taken as 100% survival. […]

bovine serum albumin, sequence (P02769 25-607): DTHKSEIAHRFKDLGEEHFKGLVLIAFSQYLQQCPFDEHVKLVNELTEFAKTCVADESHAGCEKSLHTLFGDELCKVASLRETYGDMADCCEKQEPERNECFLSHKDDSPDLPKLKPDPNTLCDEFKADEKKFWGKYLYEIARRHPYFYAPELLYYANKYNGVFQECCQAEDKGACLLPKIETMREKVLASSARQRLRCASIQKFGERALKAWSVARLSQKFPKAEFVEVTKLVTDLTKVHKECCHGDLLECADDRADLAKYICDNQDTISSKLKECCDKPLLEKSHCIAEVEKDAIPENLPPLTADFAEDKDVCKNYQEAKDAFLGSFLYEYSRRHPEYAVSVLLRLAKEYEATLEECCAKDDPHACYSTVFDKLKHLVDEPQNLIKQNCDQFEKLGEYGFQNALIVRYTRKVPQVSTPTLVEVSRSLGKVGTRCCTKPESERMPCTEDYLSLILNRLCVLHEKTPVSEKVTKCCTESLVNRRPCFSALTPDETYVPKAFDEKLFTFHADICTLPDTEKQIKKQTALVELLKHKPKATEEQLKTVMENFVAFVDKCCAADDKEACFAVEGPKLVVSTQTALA

For Nc1nc2c(ncn2[C@@H]2O[C@H](COP(=O)([O-])[O-])[C@@H](O)[C@H]2O)c(=O)[nH]1.[Na+].[Na+] [5′-GMP, guanosine 5′-monophosphate disodium salt], the “pKa of the N7 position” value [1] is given as 2.57.

In the case of N[C@@H](Cc1c[nH]cn1)C(=O)O [L-histidine], the “side chain pKa” value ([1]; imidazole) is given as 6.07.

For “[Ru(η^6-C6H5(CH2)3CH2NHTf)(en)(Cl)]PF6 [Complex 5]”, the “Apparent pKa” value [2] was 8.00 and the “Arene loss on standing of the NMR solution” value [3] was “not observed”.

In the case of [Ru(η^6-C6H5CH2CH2NHMs)(C2O4)(H2O)], the “Apparent pKa for the Analogous [Ru(η^6-C6H5CH2CH2NHR)(C2O4)(H2O)] Complex” value (from here on “Apparent pKa for the Analogous”) [4] is listed as 6.65 ^‡.

For [Ru(η^6-C6H5CH2CH2NHTf)(C2O4)(H2O)], the “Apparent pKa for the Analogous” value [4] is listed as 4.05 ^‡.

In the case of [Ru(η^6-C6H5CH2CH2NHTr)(C2O4)(H2O)], the “Apparent pKa for the Analogous” value ([2]; R = Tr, 295 K) is reported as 5.75.

For “[Ru(η^6:κ^1-C6H5(CH2)2CH2NTf)(en)]PF6 [Complex 4]”, the “5′-GMP coordinated to the complex” value (5′-GMP; pD 6.5, 144 h) was 16 ± 1.6%, the “5′-GMP coordinated to the complex” value (5′-GMP; pD 7.5, 144 h) was “no coordination” and the “Coordination of L-histidine to the complex” value ([5]; pD 6.5, 144 h) was “lack of reactivity; also recorded: No coordination”. The “Coordination of L-histidine to the complex” value ([5]; pD 7.5, 144 h) was “lack of reactivity; also recorded: no coordination”, the “Apparent pKa” value [2] was 4.82 and the “Non-covalent interaction with bovine serum albumin (1H NMR signals broader and slightly shifted)” value (bovine serum albumin) was “non-covalent interactions between 4 and the protein may be occurring”. For the same compound, the “Reactivity (covalent interaction) towards bovine serum albumin” value (bovine serum albumin; phosphate buffer 0.2 M, 0.1 M NaCl) was “lack of reactivity; also recorded: no covalent interaction”, the “Fraction converted to the open form at equilibrium” value ([6]; pD 4.12, equilibrium reached within 16 h, 2.46 mM complex, 0.1 M NaCl) was 93% and the “Open form present at equilibrium (from data fitting)” value ([6]; pD 4.91, equilibrium not reached within 16 h) was 61%. The “Open form present at equilibrium (from data fitting)” value ([6]; pD 5.96, equilibrium not reached within 16 h) was 24%, the “Arene loss on standing of the NMR solution” value [3] was “not observed” and the “Inhibition of cell growth (MTT)” value (HT-29 cell line; media with 1% fetal calf serum) was “no significant inhibition of cell growth”. For the same compound, the “Inhibition of cell growth (MTT)” value (HT-29 cell line; media with 10% fetal calf serum) was “no significant inhibition of cell growth”.

In the case of “cis-[PtCl(Me2N(CH2)2PPh2-N,P)(Me2N(CH2)2PPh2-P)]Cl”, the “pKa (ring-open/ring-closed equilibrium, pH titrations)” value [1] is given as 6.9.
